One experiment deals with T1, MASP-2 (CCP1-CCP2-SP) (Homo sapiens, UniProt O00187).
T1 construct: 15 μL of Enzyme MASP-2 (CCP1-CCP2-SP) in Assay Buffer
Put plainly: Enzymatic assay for MASP-2 inhibitory activity (fluorogenic substrate). It is filed as biochemical. The essentials: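 MASP-2 (CCP1-CCP2-SP) cleaved a fluorogenic substrate based on the C2 cleavage site in 20 mM HEPES pH 7.4, 140 mM NaCl, 0.1% Tween 20 at room temperature. After 20 min the reaction was stopped with 0.1 M acetic acid and fluorescence read. % activity was normalized to DMSO-only and no-enzyme controls; IC50 taken as Ki.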

In the next experiment the target is T2, human α-thrombin (Homo sapiens, UniProt P00734).
T2 construct: enzyme (human α-thrombin (BioPharm® Lab.)) in assay buffer; purchased BioPharm® Lab
The experiment in a line: Enzymatic assay for thrombin (fluorogenic peptide substrate Boc-VPR-AMC). It is filed as biochemical. The method, boiled down:
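Human α-thrombin was run with the fluorogenic substrate Boc-VPR-AMC in 20 mM Hepes pH 7.4, 140 mM NaCl, 0.1% Tween 20 at room temperature for 20 min, then stopped with 0.1 M acetic acid. % activity was normalized to DMSO and no-enzyme controls. Under linear conditions IC50 equalled Ki, except for tight-binding inhibitors.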

Counter-ions that a name gives are not always drawn.

T1 sequence (O00187 445-686 limits assumed): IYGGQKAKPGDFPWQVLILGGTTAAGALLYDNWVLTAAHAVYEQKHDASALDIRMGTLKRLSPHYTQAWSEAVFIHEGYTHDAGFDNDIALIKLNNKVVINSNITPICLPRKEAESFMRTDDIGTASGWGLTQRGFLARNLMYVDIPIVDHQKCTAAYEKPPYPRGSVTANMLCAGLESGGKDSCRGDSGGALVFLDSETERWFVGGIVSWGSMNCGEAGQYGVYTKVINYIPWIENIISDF
T1 sequence (O00187 287-444 partner limits assumed): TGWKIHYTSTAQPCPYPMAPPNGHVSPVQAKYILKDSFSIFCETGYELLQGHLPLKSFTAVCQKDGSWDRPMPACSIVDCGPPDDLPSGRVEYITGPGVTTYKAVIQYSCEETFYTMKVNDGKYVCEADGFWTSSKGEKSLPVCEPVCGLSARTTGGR

A word on the Ki: it is the equilibrium dissociation constant of an inhibitor or competing ligand from its target. Higher therefore signals weaker binding. For the compound `Cc1cc(F)cc(CNc2nc(-c3cnn(C(F)F)c3)c3n(c2=O)[C@H](C(=O)NCc2ccc(N)nc2)CC3)c1` [Compound 216, (S)-N-((6-aminopyridin-3-yl)methyl)-1-(1-(difluoromethyl)-1H-pyrazol-4-yl)-3-((3-fluoro-5-methylbenzyl)amino)-4-oxo-4,6,7,8-tetrahydropyrrolo[1,2-a]pyrazine-6-carboxamide trifluoroacetate], the Ki at MASP-2 (CCP1-CCP2-SP) is under 500 nM; at human α-thrombin, over 25000 nM.
In the same order, the values of `Cc1cc(F)cc(CNc2nc(-c3ccccc3)c3n(c2=O)[C@H](C(=O)NCc2ccc(N)nc2C)CC3)c1` [Compound 217, (S)-N-((6-amino-2-methylpyridin-3-yl)methyl)-3-((3-fluoro-5-methylbenzyl)amino)-4-oxo-1-phenyl-4,6,7,8-tetrahydropyrrolo[1,2-a]pyrazine-6-carboxamide trifluoroacetate] are under 500 nM and over 25000 nM.
For `[2H]C([2H])([2H])c1nc(NCc2cc(C)cc(F)c2)c(=O)n2c1CC[C@H]2C(=O)NCc1ccc(N)nc1C` [Compound 218, (S)-N-((6-amino-2-methylpyridin-3-yl)methyl)-3-((3-fluoro-5-methylbenzyl)amino)-1-(methyl-d3)-4-oxo-4,6,7,8-tetrahydropyrrolo[1,2-a]pyrazine-6-carboxamide trifluoroacetate], in that order: under 500 nM and under 500 nM.
As for `Cc1cc(F)cc(CNc2nc(-c3cnn(C(F)F)c3)c3n(c2=O)[C@H](C(=O)NCc2cc4c(s2)CNC4)CC3)c1` [Compound 219, (S)-1-(1-(difluoromethyl)-1H-pyrazol-4-yl)-N-((5,6-dihydro-4H-thieno[2,3-c]pyrrol-2-yl)methyl)-3-((3-fluoro-5-methylbenzyl)amino)-4-oxo-4,6,7,8-tetrahydropyrrolo[1,2-a]pyrazine-6-carboxamide trifluoroacetate], the figures for the Ki on MASP-2 (CCP1-CCP2-SP) and at human α-thrombin were under 500 nM and over 25000 nM, respectively.
In the same order, the values of `Cc1nc(N)ccc1CNC(=O)[C@@H]1CCc2cnc(NCc3cccc(-c4ccccc4)c3)c(=O)n21` [Compound 220, (S)-3-(([1,1′-biphenyl]-3-ylmethyl)amino)-N-((6-amino-2-methylpyridin-3-yl)methyl)-4-oxo-4,6,7,8-tetrahydropyrrolo[1,2-a]pyrazine-6-carboxamide trifluoroacetate] are under 500 nM and under 500 nM.
`Cc1cc(F)cc(CNc2nc(C#N)c3n(c2=O)[C@H](C(=O)NCc2ccc(N)nc2C)CC3)c1` [Compound 222, (S)—N-((6-amino-2-methylpyridin-3-yl)methyl)-1-cyano-3-((3-fluoro-5-methylbenzyl)amino)-4-oxo-4,6,7,8-tetrahydropyrrolo[1,2-a]pyrazine-6-carboxamide trifluoroacetate]: the Ki on MASP-2 (CCP1-CCP2-SP) was under 500 nM; at human α-thrombin, 2500 to 10000 nM.
For `Cc1ccc(F)c(CNc2nc(C#N)c3n(c2=O)[C@H](C(=O)NCc2ccc(N)nc2C)CC3)c1` [Compound 223, trifluoroacetate], the Ki at MASP-2 (CCP1-CCP2-SP) was under 500 nM; at human α-thrombin, 2500 to 10000 nM.
In the same order, the values of `Cc1cc(F)c(F)c(CNc2ncc3n(c2=O)[C@H](C(=O)N[C@H](C)c2ccc(N)nc2)CC3)c1` [Compound 224, (S)—N—((R)-1-(6-aminopyridin-3-yl)ethyl)-3-((2,3-difluoro-5-methylbenzyl)amino)-4-oxo-4,6,7,8-tetrahydropyrrolo[1,2-a]pyrazine-6-carboxamide trifluoroacetate] are under 500 nM and 2500 to 10000 nM.
Turning to `NCc1ccc(CNC(=O)[C@@H]2CCc3c(Cl)nc(NCc4ccc5c(c4)CCCC5)c(=O)n32)s1` [Compound 225, (S)—N-((5-(aminomethyl)thiophen-2-yl)methyl)-1-chloro-4-oxo-3-(((5,6,7,8-tetrahydronaphthalen-2-yl)methyl)amino)-4,6,7,8-tetrahydropyrrolo[1,2-a]pyrazine-6-carboxamide trifluoroacetate], the figures for the inhibition constant Ki on MASP-2 (CCP1-CCP2-SP) and on human α-thrombin were under 500 nM and over 25000 nM, respectively.

The values are drawn from patent US20250122225A1, “MASP-2 INHIBITORS AND METHODS OF USE” (Omeros Corporation, priority 2023, published 2025).
